Patent US4608373A, “Cephem compounds” (Yamanouchi Pharmaceutical Co., Ltd., priority 1982, dated 1986)
Values after ≈ are worked out from the molar mass of the structure shown. Structures can show the parent of a compound that is named as a salt. Where two headings read alike, the source gives them in different places.

Key:
Type in all cases: cell-based
Serr. marcescens IID 620 = assay: Antibacterial activity (MIC), Serr. marcescens IID 620; conditions: Serratia marcescens
Source text: (§1) Antibacterial activities (minimum effective inhibitory concentrations) of the compounds of formula I are shown in the following table in comparison with those of cefatazidime having the structure [drawing 5] and cefmenoxime having the structure [drawing 6]

Staph. aureus ATCC 6538P = assay: Antibacterial activity (MIC), Staph. aureus ATCC 6538P; conditions: Staphylococcus aureus, ATCC6538P, read-out: MIC (minimum effective inhibitory concentration)
Source text: as §1

Proteus morgani IID 602 = assay: Antibacterial activity (MIC), Proteus morgani IID 602; conditions: read-out: MIC (minimum effective inhibitory concentration)
Source text: as §1

[1] = tested on: Kleb. pneumoniae ATCC 10031; assay: Antibacterial activity (MIC), Kleb. pneumoniae ATCC 10031; conditions: Klebsiella pneumoniae, ATCC10031, read-out: MIC (minimum effective inhibitory concentration)
Source text: as §1

[2] = tested on: Ent. aerogenes ATCC 13048 (MS-1); assay: Antibacterial activity (MIC), Ent. aerogenes ATCC 13048 (MS-1); conditions: Klebsiella aerogenes, ATCC13048, read-out: MIC (minimum effective inhibitory concentration)
Source text: as §1

Ent. cloacae V-8 = assay: Antibacterial activity (MIC), Ent. cloacae V-8; conditions: Enterobacter cloacae, V8, read-out: MIC (minimum effective inhibitory concentration)
Source text: as §1

E. coli Ebara = assay: Antibacterial activity (MIC), E. coli Ebara; conditions: Escherichia coli, read-out: MIC (minimum effective inhibitory concentration)
Source text: as §1

Staph. aureus Terashima = assay: Antibacterial activity (MIC), Staph. aureus Terashima; conditions: Staphylococcus aureus, read-out: MIC (minimum effective inhibitory concentration)
Source text: as §1

Staph. aureus Smith = assay: Antibacterial activity (MIC), Staph. aureus Smith; conditions: Staphylococcus aureus, read-out: MIC (minimum effective inhibitory concentration)
Source text: as §1

[3] = tested on: Ps. aeruginosa NCTC 10490; assay: Antibacterial activity (MIC), Ps. aeruginosa NCTC 10490; conditions: Pseudomonas aeruginosa, NCTC10490, read-out: MIC (minimum effective inhibitory concentration)
Source text: as §1

Ps. aeruginosa IID 5142 = assay: Antibacterial activity (MIC), Ps. aeruginosa IID 5142; conditions: Pseudomonas aeruginosa, IID5142, read-out: MIC (minimum effective inhibitory concentration)
Source text: as §1

[4] = IID620, Serr. marcescens IID 620, read-out: MIC (minimum effective inhibitory concentration)

Row | Structure (SMILES) | MIC (Serr. marcescens IID 620; [4]) [µg/mL] | MIC (Staph. aureus ATCC 6538P) [µg/mL] | MIC (Proteus morgani IID 602; Proteus morgani IID 602) [µg/mL] | MIC [1] [µg/mL] | MIC [2] [µg/mL] | MIC (Ent. cloacae V-8) [µg/mL] | MIC (E. coli Ebara; E. coli Ebara) [µg/mL] | MIC (Staph. aureus Terashima) [µg/mL] | MIC (Staph. aureus Smith) [µg/mL] | MIC [3] [µg/mL] | MIC (Ps. aeruginosa IID 5142) [µg/mL] | MIC (Serr. marcescens IID 620; IID620, read-out: MIC (minimum effective inhibitory concentration)) [µg/mL] | MIC (Proteus morgani IID 602) [µg/mL] | MIC (E. coli Ebara) [µg/mL]
1 | CC1=C(C(=O)O)N2C(=O)C(NC(=O)/C(=N\OCc3csc(N)n3)c3csc(N)n3)[C@H]2SC1 (stereo partly drawn) [1(b), (Z)-7-{α-(2-amino-4-thiazolyl)-α-[(2-amino-4-thiazolyl)methoxyimino]acetamido}-3-methyl-3-cephem-4-carboxylic acid] | 1.56 (≈ 3.15 µM) | 3.13 (≈ 6.32 µM) | 3.13 (≈ 6.32 µM) | ≤ 0.2 | 6.25 (≈ 12.6 µM) | 6.25 (≈ 12.6 µM) | 1.56 (≈ 3.15 µM) | 12.5 (≈ 25.2 µM) | 6.25 (≈ 12.6 µM) | 6.25 (≈ 12.6 µM) |  |  |  | 
2 | CC(=O)OCC1=C(C(=O)O)N2C(=O)C(NC(=O)/C(=N\OCc3csc(N)n3)c3csc(N)n3)[C@H]2SC1 (stereo partly drawn) [2(b), (Z)-7-{α-(2-amino-4-thiazolyl)-α-[(2-amino-4-thiazolyl)methoxyimino]acetamido}-3-acetoxymethyl-3-cephem-4-carboxylic acid] | 0.78 (≈ 1.41 µM) | 1.56 (≈ 2.82 µM) | 0.39 (≈ 0.704 µM) | ≤ 0.2 | 1.56 (≈ 2.82 µM) | 3.13 (≈ 5.65 µM) | ≤ 0.2 | 3.13 (≈ 5.65 µM) | 1.56 (≈ 2.82 µM) | 0.39 (≈ 0.704 µM) | 25 (≈ 45.2 µM) |  |  | 
3 | CSC1=C(C(=O)O)N2C(=O)C(NC(=O)/C(=N\OCc3csc(N)n3)c3csc(N)n3)[C@H]2SC1 (stereo partly drawn) [3(b), (Z)-7-{α-(2-amino-4-thiazolyl)-α-[(2-amino-4-thiazolyl)methoxyimino]acetamido}-3-methylthio-3-cephem-4-carboxylic acid] | 1.56 (≈ 2.96 µM) | 0.78 (≈ 1.48 µM) | 1.56 (≈ 2.96 µM) | ≤ 0.2 | 6.25 (≈ 11.8 µM) | 3.13 (≈ 5.93 µM) | 3.13 (≈ 5.93 µM) | 1.56 (≈ 2.96 µM) | 0.78 (≈ 1.48 µM) | 1.56 (≈ 2.96 µM) |  |  |  | 
4 | CC(C)(O/N=C(\C(=O)N[C@@H]1C(=O)N2C(C(=O)[O-])=C(C[n+]3ccccc3)CS[C@H]12)c1csc(N)n1)C(=O)O [CD, Ceftazidime, reference compound] |  | 6.25 (≈ 11.4 µM) |  | ≤ 0.2 | 0.39 (≈ 0.714 µM) | 1.56 (≈ 2.85 µM) |  | 12.5 (≈ 22.9 µM) | 6.25 (≈ 11.4 µM) | 0.78 (≈ 1.43 µM) | 1.56 (≈ 2.85 µM) | ≤ 0.2 | ≤ 0.2 | ≤ 0.2
5 | CO/N=C(\C(=O)N[C@@H]1C(=O)N2C(C(=O)O)=C(CSc3nnnn3C)CS[C@H]12)c1csc(N)n1 [CX, Cefmenoxime, reference compound] | 0.2 (≈ 0.391 µM) | 3.13 (≈ 6.12 µM) | ≤ 0.2 | ≤ 0.2 |  | 3.13 (≈ 6.12 µM) | 0.2 (≈ 0.391 µM) | 12.5 (≈ 24.4 µM) | 6.25 (≈ 12.2 µM) | 1.56 (≈ 3.05 µM) | 100 (≈ 195 µM) |  |  | 
6 | Cn1nc(O)c(=O)nc1SCC1=C(C(=O)O)N2C(=O)C(NC(=O)/C(=N\OCc3csc(N)n3)c3csc(N)n3)[C@H]2SC1 (stereo partly drawn) [Example 5, (Z)-7-{α-(2-amino-4-thiazolyl)-α-[(2-amino-4-thiazolyl)methoxyimino]acetamido}-3-{[(2,5-dihydro-6-hydroxy-2-methyl-5-oxo-as-triazine-3-yl)thio]methyl}-3-cephem-4-carboxylic acid] | 0.78 (≈ 1.19 µM) | 3.13 (≈ 4.8 µM) | 0.39 (≈ 0.597 µM) | ≤ 0.2 | 1.56 (≈ 2.39 µM) | 1.56 (≈ 2.39 µM) | ≤ 0.2 | 12.5 (≈ 19.2 µM) | 3.13 (≈ 4.8 µM) | 1.56 (≈ 2.39 µM) | 12.5 (≈ 19.2 µM) |  |  | 
7 | Cn1nnnc1SCC1=C(C(=O)O)N2C(=O)C(NC(=O)/C(=N\OCc3csc(N)n3)c3csc(N)n3)C2SC1 (stereo not drawn) [Example 6] | 0.39 (≈ 0.64 µM) | 0.78 (≈ 1.28 µM) | 0.39 (≈ 0.64 µM) | ≤ 0.2 | 1.56 (≈ 2.56 µM) | 1.56 (≈ 2.56 µM) | ≤ 0.2 | 1.56 (≈ 2.56 µM) | 0.78 (≈ 1.28 µM) | ≤ 0.2 | 12.5 (≈ 20.5 µM) |  |  | 
8 | Nc1nc(CO/N=C(\C(=O)NC2C(=O)N3C(C(=O)[O-])=C(C[n+]4ccccn4)CSC23)c2csc(N)n2)cs1 (stereo not drawn) [Example 7, (Z)-7-{α-(2-amino-4-thiazolyl)-α-[(2-amino-4-thiazolyl)methoxyimino]acetamido}-3-(1-pyridadiniomethyl)-3-cephem-4-carboxylate] | 0.39 (≈ 0.68 µM) | 1.56 (≈ 2.72 µM) | 1.56 (≈ 2.72 µM) | ≤ 0.2 | 3.13 (≈ 5.46 µM) | 6.25 (≈ 10.9 µM) | 0.78 (≈ 1.36 µM) | 1.56 (≈ 2.72 µM) | 1.56 (≈ 2.72 µM) | 0.78 (≈ 1.36 µM) | 12.5 (≈ 21.8 µM) |  |  | 
9 | Nc1nc(CO/N=C(\C(=O)NC2C(=O)N3C(C(=O)[O-])=C(C[n+]4ccccc4)CSC23)c2csc(N)n2)cs1 (stereo not drawn) [Example 8, (Z)-7-{α-(2-amino-4-thiazolyl)-α-[(2-amino-4-thiazolyl)methoxyimino]acetamido}-3-(1-pyridiniummethyl)-3-cephem-4-carboxylate] | 0.78 (≈ 1.36 µM) | 1.56 (≈ 2.72 µM) | 0.78 (≈ 1.36 µM) | ≤ 0.2 | 1.56 (≈ 2.72 µM) | 6.25 (≈ 10.9 µM) | 0.78 (≈ 1.36 µM) | 1.56 (≈ 2.72 µM) | 0.78 (≈ 1.36 µM) | ≤ 0.2 | 3.13 (≈ 5.47 µM) |  |  | 
10 | NC(=O)c1cc[n+](CC2=C(C(=O)[O-])N3C(=O)C(NC(=O)/C(=N\OCc4csc(N)n4)c4csc(N)n4)C3SC2)cc1 (stereo not drawn) [Example 9, (Z)-7-{α-(2-amino-4-thiazolyl)-α-[(2-amino-4-thiazolyl)methoxyimino]acetamido}-3-(4-carbamoyl-1-pyridiniummethyl)-3-cephem-4-carboxylate] | 0.78 (≈ 1.27 µM) | 1.56 (≈ 2.53 µM) | 0.39 (≈ 0.633 µM) | ≤ 0.2 | 1.56 (≈ 2.53 µM) | 3.13 (≈ 5.08 µM) | ≤ 0.2 | 1.56 (≈ 2.53 µM) | 1.56 (≈ 2.53 µM) | 0.39 (≈ 0.633 µM) | 6.25 (≈ 10.2 µM) |  |  | 
11 | Nc1nc(CO/N=C(\C(=O)NC2C(=O)N3C(C(=O)[O-])=C(C[n+]4cccc(CC(=O)O)c4)CSC23)c2csc(N)n2)cs1 (stereo not drawn) [Example 12, (Z)-7-{α-(2-amino-4-thiazolyl)-α-[(2-amino-4-thiazolyl)methoxyimino]acetamido}-3-(3-carboxylatemethyl-1-pyridiniomethyl)-3-cephem-4-carboxylate mono-sodium salt] | ≤ 0.2 | 3.13 | 0.78 | ≤ 0.2 | 1.56 | 3.13 | 1.56 | 6.25 | 3.13 | 1.56 | 25 |  |  | 
12 | Nc1nc(CO/N=C(\C(=O)NC2C(=O)N3C(C(=O)[O-])=C(C[n+]4cccc(C(=O)O)c4)CSC23)c2csc(N)n2)cs1 (stereo not drawn) [Example 13, (Z)-7-{α-(2-amino-4-thiazolyl)-α-[(2-amino-4-thiazolyl)methoxyimino]acetamido}-3-(3-carboxylate-1-pyridiniomethyl)-3-cephem-4-carboxylatemono-sodium salt] | ≤ 0.2 | 3.13 | 1.56 | ≤ 0.2 | 3.13 | 3.13 | 3.13 | 6.25 | 3.13 | 1.56 | 25 |  |  | 
13 | Nc1nc(CO/N=C(\C(=O)NC2C(=O)N3C(C(=O)[O-])=C(C[n+]4ccc(C(=O)O)cc4)CSC23)c2csc(N)n2)cs1 (stereo not drawn) [Example 14, (Z)-7-{α-(2-amino-4-thiazolyl)-α-[(2-amino-4-thiazolyl)methoxyimino]acetamido}-3-(4-carboxylate-1-pyridiniomethyl)-3-cephem-4-carboxylatemono-sodium salt] | ≤ 0.2 | 3.13 | 0.78 | ≤ 0.2 | 1.56 | 3.13 | 3.13 | 6.25 | 3.13 | 0.39 | 12.5 |  |  | 
14 | Nc1nc(CO/N=C(\C(=O)NC2C(=O)N3C(C(=O)[O-])=C(C[n+]4ccc(CO)cc4)CS[C@H]23)c2csc(N)n2)cs1 (stereo partly drawn) [Example 15, (Z)-7-{α-(2-amino-4-thiazolyl)-α-[(2-amino-4-thiazolyl)methoxyimino]acetamido}-3-(4-hydroxymethyl-1-pyridiniomethyl)-3-cephem-4-carboxylate] | ≤ 0.2 | 1.56 (≈ 2.59 µM) | 1.56 (≈ 2.59 µM) | ≤ 0.2 | 1.56 (≈ 2.59 µM) | 3.13 (≈ 5.19 µM) | ≤ 0.2 | 1.56 (≈ 2.59 µM) | 1.56 (≈ 2.59 µM) | ≤ 0.2 | 6.25 (≈ 10.4 µM) |  |  | 
15 | Nc1nc(CO/N=C(\C(=O)NC2C(=O)N3C(C(=O)[O-])=C(C[n+]4cccc(O)c4)CS[C@H]23)c2csc(N)n2)cs1 (stereo partly drawn) [Example 16, (Z)-7-{α-(2-amino-4-thiazolyl)-α-[(2-amino-4-thiazolyl)methoxyimino]acetamido}-3-(3-hydroxy-1-pyridiniomethyl]-3-cephem-4-carboxylate] | 0.39 (≈ 0.663 µM) | 3.13 (≈ 5.32 µM) | 0.78 (≈ 1.33 µM) | ≤ 0.2 | 3.13 (≈ 5.32 µM) | 6.25 (≈ 10.6 µM) | 1.56 (≈ 2.65 µM) | 6.25 (≈ 10.6 µM) | 6.25 (≈ 10.6 µM) | 1.56 (≈ 2.65 µM) | 25 (≈ 42.5 µM) |  |  | 
